Experiment [1] has as its system dermal fibroblasts derived from a diabetic patient. Kind of experiment: Intracellular triglyceride content of dermal fibroblasts cultured with fatty acids. It is filed as cell-based, human. As to conditions: 2 days of culture; for potency for reducing triglyceride compared with other fatty acid: Example 4-2, 125 μM and 500 μM, FIG. 7. The text has this:
A portion of skin tissue was sampled from a diabetic patient after the patient's consent. This sample skin tissue was subjected to primary culture (culture medium: DMEM/10% FBS) by a tissue fragment culture method (Explant method) and subsequent successive passages, and then developed into a cell line. The dermal fibroblasts derived from the patient were used to examine the effect of various fatty acids on intracellular triglyceride content. The intracellular triglyceride content of the dermal fibroblasts derived from the diabetic patient was about 5 times higher than the average intracellular triglyceride content of dermal fibroblasts derived from three healthy subjects. The long-chain fatty acids used were palmitic acid (C16:0), oleic acid (C18:1), linoleic acid ([…]), arachidonic acid (C20:4), and […] (C20:5). The medium-chain fatty acids used were heptanoic acid (C7:0) and capric acid (C10:0). These different fatty acids were separately added at 50 μM and 500 μM to the media of dermal fibroblasts from the diabetic patient described above. After 2 days of culture, the cells were collected, and the intracellular triglyceride content was measured using a triglyceride quantification kit (BioVision). The medium-chain fatty acids used were capric acid (C10:0), caprylic acid (C8:0), and 8-methylnonanoic acid ([…]). These different fatty acids were separately added at 125 μM and 500 μM to the media of dermal fibroblasts from the diabetic patient described above. After 2 days of culture, the cells were collected, and the intracellular triglyceride content was measured using a triglyceride quantification kit (BioVision). For controls, 500 μM palmitic acid (C16:0) or no fatty acid was added to the medium of the same dermal fibroblasts as those used above.

In experiment [2] the test system is TG deposit atherosclerosis in the coronary artery. Kind of experiment: 3D image analysis (SYNAPSE VINCENT) of lipid accumulation and vascular lumen size in designated coronary segment. The class given is in vivo, human. On the procedure: (§1) Before and 4 years after the start of the tricaprin/trisdecanoin diet, a standard coronary CT angiography was performed, and the images of the inside of the left anterior descending coronary artery were color-coded in the same manner as described in Example 1. The images of the designated segment of the coronary artery were analyzed with a 3D image analysis system SYNAPSE VINCENT v5.5 (FUJIFILM Corporation) to examine changes in lipid accumulation and vascular lumen size in the designated segment. In the image analysis, the area with CT values ranging −25 to 40 HU was regarded as lipid accumulation, and the area with CT values ranging 215 to 700 HU was regarded as the vascular lumen.
(§2) Angiograms of the coronary artery were taken before and 3 months after the start of the tricaprin/trisdecanoin diet. A standard coronary CT angiography was also performed, and the images were color-coded in the same manner as described in Example 1. The images of the designated segment of the coronary artery were subjected to 3D image analysis in the same manner as described in Example 2 to examine changes in lipid accumulation and vascular lumen size in the designated segment.

Experiment [3] is described as follows: Serum lipid levels before and after the start of the tricaprin/trisdecanoin diet. The class given is in vivo, human. Conditions: for LDL cholesterol, serum / HDL cholesterol, serum / TG (triglyceride), serum: After treatment. As for the experimental part:
The mean values of the triglyceride, LDL cholesterol, and HDL cholesterol levels measured before the start of the tricaprin/trisdecanoin diet were compared to those measured for 4 years after the start of the tricaprin/trisdecanoin diet. […] The LDL cholesterol level was under control within the normal range (60 to 119 mg/dL).
The mean values of the triglyceride, LDL cholesterol, and HDL cholesterol levels measured before the start of the tricaprin/trisdecanoin diet were compared to those measured for 3 months after the start of the tricaprin/trisdecanoin diet. […] The LDL cholesterol level was under control at a level lower than the normal range (60 to 119 mg/dL).

For experiment [4], the system named is coronary arteries of patient with idiopathic TGCV. In words: Angiograms of the coronary artery, blood flow. As to conditions: Example 3 patient, refractory angina. The class given is in vivo, human. As for the experimental part:
as §2

Experiment [5] relates to TG deposit atherosclerosis in the coronary artery. Kind of experiment: Coronary CT angiography, color-coded images of lipid accumulation in the coronary artery. The class given is in vivo, human. As for the experimental part:
Before and 50 days after the start of the tricaprin/trisdecanoin diet, a standard coronary CT angiography was performed to generate three-dimensional (3D) DICOM images of the left anterior descending coronary artery. The images were resampled to a voxel size of 0.1 mm^3 and color-coded according to CT values of individual voxels. Smoothing was applied between adjacent voxels. Colors were coded as follows: light gray (yellow in the color image): −25 HU to 0 HU (massive lipid accumulation); medium gray (orange in the color image): 0 HU to 40 HU (moderate lipid accumulation); dark gray (green in the color image): 40 HU to 125 HU (no lipid accumulation).
as §1, §2

In experiment [6] the test system is recurrent cerebral infarction. Kind of experiment: Clinical course of the patient during the tricaprin/trisdecanoin diet. As to conditions: Example 2 patient with history of cerebral infarction; 1.5 g/day for 4 years. The class given is in vivo, human. An excerpt:
A person who had suffered from refractory angina for years. The patient had diabetes with a history of middle cerebral artery occlusion and cerebral infarction. The patient presented to hospital with a chief complaint of rest and nocturnal angina. […] Their chest pain was refractory to existing medications (sublingual nitroglycerin, calcium channel blockers, β-blockers, antiplatelet agents, and statins) and rather worsened. […] The patient received tricaprin/trisdecanoin three times per day after meals in a total daily dose of 1.5 g for 4 years.

The target of another experiment is T1, PCSK9 (Homo sapiens, UniProt Q8NBP7).
T1 construct: randomly assigned to receive evolocumab (monoclonal antibody against PCSK9); host or cells: patients (in vivo, endogenous circulating PCSK9)
Conditions: evolocumab group (484 patients) on statin treatment, cited from earlier work.

The mark [7] stands for this setting: Example 2 patient, 1.5 g/day for 4 years.
Where [8] appears, read: Example 3 patient, 4.5 g/day for 3 months.

Here are results for four molecules from patent publication US12576061B2, “Agent for inducing regression of triglyceride deposit atherosclerosis” (OSAKA UNIVERSITY, priority 2020, dated 2026).

Entries after “also recorded” stand apart in the source; their conditions may differ.

T1 sequence (Q8NBP7 153-692): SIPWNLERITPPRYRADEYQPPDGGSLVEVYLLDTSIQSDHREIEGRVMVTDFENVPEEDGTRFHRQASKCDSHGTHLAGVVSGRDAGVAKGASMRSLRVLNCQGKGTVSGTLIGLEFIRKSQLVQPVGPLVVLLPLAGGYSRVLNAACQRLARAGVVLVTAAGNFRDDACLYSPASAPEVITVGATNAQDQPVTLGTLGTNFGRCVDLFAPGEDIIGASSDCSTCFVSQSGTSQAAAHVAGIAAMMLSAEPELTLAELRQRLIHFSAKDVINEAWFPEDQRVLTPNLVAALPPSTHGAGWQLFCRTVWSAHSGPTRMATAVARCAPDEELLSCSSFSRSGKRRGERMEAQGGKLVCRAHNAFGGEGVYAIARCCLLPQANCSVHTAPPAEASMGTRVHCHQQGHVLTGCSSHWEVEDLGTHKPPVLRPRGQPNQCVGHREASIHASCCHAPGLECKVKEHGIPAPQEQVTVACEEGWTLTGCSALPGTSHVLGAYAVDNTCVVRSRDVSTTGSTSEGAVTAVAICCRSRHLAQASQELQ

For the molecule `CC(C)CCCCCCC(=O)O` [8-methylnonanoic acid], in experiment [1], the “potency for reducing triglyceride compared with other fatty acid” value is “more potent medium-chain fatty acids for reducing triglyceride than palmitic acid”.
`CCCCCCCCCC(=O)O` [capric acid]: the “intracellular triglyceride content relative to control cells (100%)” value in experiment [1] (Example 4-1, fatty acid added at 50 μM and 500 μM, FIG. 6) is reported as “reduction in intracellular triglyceride content”. Also, the “potency for reducing triglyceride compared with other fatty acid” value in experiment [1] is given as “more potent medium-chain fatty acids for reducing triglyceride than palmitic acid”.
`CCCCCCCCCC(=O)OCC(COC(=O)CCCCCCCCC)OC(=O)CCCCCCCCC` [tricaprin/trisdecanoin]: the Vascular lumen in experiment [2] (% increase vs before diet, Example 2 patient, 1.5 g/day for 4 years, segment designated in FIG. 2, 2.2 cm, CT values 215 to 700 HU) came out at 260% increase; in experiment [2] (% increase, Example 3 patient, 4.5 g/day for 3 months, not stented segment Circumflex 7.2 cm), 17% increase; in experiment [2] (% increase, Example 3 patient, 4.5 g/day for 3 months, not stented segment LAD 3.7 cm), 48% increase; in experiment [2] (% increase, Example 3 patient, 4.5 g/day for 3 months, not stented segment RCA 3.4 cm), 24% increase. The Lipid accumulation is given as 27% reduction in experiment [2] (% reduction vs before diet, Example 2 patient, 1.5 g/day for 4 years, segment designated in FIG. 2, 2.2 cm, CT values -25 to 40 HU); 50% reduction in experiment [2] (% reduction, Example 3 patient, 4.5 g/day for 3 months, not stented segment Circumflex 7.2 cm); 53% reduction in experiment [2] (% reduction, Example 3 patient, 4.5 g/day for 3 months, not stented segment LAD 3.7 cm); 14% reduction in experiment [2] (% reduction, Example 3 patient, 4.5 g/day for 3 months, not stented segment RCA 3.4 cm). In addition, the “LDL cholesterol, serum” value in experiment [3] (Mean ± SD over 3 months, Example 3 patient, 4.5 g/day, on statin, before treatment 52 ± 2.9) came out at 54 ± 1.8 mg/dL; in experiment [3] (Mean ± SD over 4 years, Example 2 patient, 1.5 g/day, before treatment 95 ± 9.0), 91 ± 13.6 mg/dL. Further, the “HDL cholesterol, serum” value in experiment [3] (Mean ± SD over 3 months, Example 3 patient, 4.5 g/day, before treatment 35 ± 1.0) is 38 ± 1.0 mg/dL; in experiment [3] (Mean ± SD over 4 years, Example 2 patient, 1.5 g/day, before treatment 34.5 ± 0.5), 33 ± 4.0 mg/dL. Besides, the “TG (triglyceride), serum” value was found to be 75 ± 11.3 mg/dL in experiment [3] (Mean ± SD over 3 months, Example 3 patient, 4.5 g/day, before treatment 78 ± 2.1) and 334 ± 118.2 mg/dL in experiment [3] (Mean ± SD over 4 years, Example 2 patient, 1.5 g/day, before treatment 308 ± 7.5). In addition, the “effect on the serum lipid levels” value in experiment [3] (setting [7]) and in experiment [3] (setting [8]) was “no effect on the serum lipid levels” each time. For the same molecule, in experiment [4] (4.5 g/day for 3 months), the “blood flow to the peripheral coronary arteries” value is “clearly improved”. For the same molecule, in experiment [4] (oral 4.5 g/day for 3 months), the “blood flow in the coronary arteries as a whole” value is recorded as “improvement in coronary blood flow; also recorded: improvement in the blood flow”. The “TG deposit atherosclerosis in the coronary artery (color-coded CT images)” value in experiment [5] (Example 1 patient, person with ATGL deficiency, 6 to 9 g/day after meals for 50 days, left anterior descending coronary artery) is “regression of TG deposit atherosclerosis in the coronary artery”. Besides, the “stenosis of the vascular lumen” value in experiment [5] (Example 2 patient, refractory angina, diabetes, 1.5 g/day for 4 years, segment 7 to 9 cm from coronary ostium, before diet 90% to 75% diffuse stenosis) is “about 25%”. Also, the “TG deposit atherosclerosis in the coronary artery” value in experiment [5] (setting [7]) and in experiment [5] (setting [8]) was “regression of TG deposit atherosclerosis in the coronary artery” throughout. Further, in experiment [5] (setting [7]), the “characteristic pattern of TG deposit atherosclerosis (lipid deposition protruding from adventitial toward medial side)” value is given as “diminished or disappeared”. In addition, the “diameter of the vascular lumen through which the blood flowed” value in experiment [5] (setting [7]) and in experiment [5] (setting [8]) was “marked enlargement” each time. Further, in experiment [6], the recurrent cerebral infarction entry is on record as “free from recurrent cerebral infarction”.

B1: evolocumab: monoclonal antibody against PCSK9 (antibody, chains of the INN, looked up, V domains shown)
VH: EVQLVQSGAEVKKPGASVKVSCKASGYTLTSYGISWVRQAPGQGLEWMGWVSFYNGNTNYAQKLQGRGTMTTDPSTSTAYMELRSLRSDDTAVYYCARGYGMDVWGQGTTVTVSS
VL: ESALTQPASVSGSPGQSITISCTGTSSDVGGYNSVSWYQQHPGKAPKLMIYEVSNRPSGVSNRFSGSKSGNTASLTISGLQAEDEADYYCNSYTSTSMVFGGGTKLTVL
With B1, in the experiment with PCSK9 (92.6 mg/dL before the start of the trial), the “LDL cholesterol level at week 76” value is given as 36.6 mg/dL. Also, in the experiment with PCSK9, the “LDL cholesterol level at week 76 as % of the level before the start of the trial” value is recorded as “about 40%” and the “percent atheroma volume, reduction at week 76” value is listed as 0.95%.
